For this test, the target named is PqsH (MBP-PqsH) (Pseudomonas aeruginosa, UniProt Q02N79). The test is described as follows: PQS fluorescence after ethyl acetate extraction, Michaelis-Menten fit. The class given is biochemical. As to conditions: NADH and O2 constant at saturating levels; pH 8.0.
PqsH (MBP-PqsH), sequence (Q02N79 2-382): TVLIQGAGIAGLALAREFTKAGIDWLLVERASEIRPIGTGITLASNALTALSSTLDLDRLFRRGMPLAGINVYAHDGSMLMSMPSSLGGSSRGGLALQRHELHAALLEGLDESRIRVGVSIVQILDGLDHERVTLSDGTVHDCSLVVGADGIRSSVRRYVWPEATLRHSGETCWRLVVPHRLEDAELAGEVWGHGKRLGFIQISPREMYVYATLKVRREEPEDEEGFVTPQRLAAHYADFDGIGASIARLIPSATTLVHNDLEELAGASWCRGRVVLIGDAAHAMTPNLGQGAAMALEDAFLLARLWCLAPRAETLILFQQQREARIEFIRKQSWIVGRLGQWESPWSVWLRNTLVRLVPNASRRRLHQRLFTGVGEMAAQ

`CCCc1cc(=O)c2ccccc2[nH]1` [C3-HHQ]: the Km entry is “almost entirely due to elevated Km values”.

For the origin of these results see article PMC3098721 (Molecular microbiology, 2010).
